This note sets out measurements from PMC10002220, “In Vivo Reversal of P-Glycoprotein-Mediated Drug Resistance in a Breast Cancer Xenograft and in Leukemia Models Using a Novel, Potent, and Nontoxic Epicatechin EC31” (International Journal of Molecular Sciences, 2023).

Each structure is given as a SMILES string.

One assay has as its system LCC6 cells. As to the kind of experiment: Drug resistance level: IC50 of anticancer drugs in LCC6. Type of assay: cell-based. The following applies: Homo sapiens, LCC-6, 72 h; 3 days incubation. How it is done:
(§1) In the Western blot membrane, the total P-gp and β-actin expression in each lane was quantified with ImageJ software. The relative P-gp expression was an intensity ratio of P-gp band relative to the β-actin band. The relative P-gp expression of the resistant cell line relative to its respective wild type was presented as a bar chart. The plasma membrane P-gp levels of LCC6MDR and K562/P-gp relative to their wild types were determined through flow cytometry using antihuman P-gp-PE antibodies. (B) LCC6MDR and LCC6. (C) K562/P-gp and K562. (D) the drug resistance levels of three P-gp-overexpressing cell lines and their wild types were studied. The 3 pairs of cell lines were incubated with anticancer drugs paclitaxel (PTX), doxorubicin (DOX), and vincristine (VCR) for 3 days, and the % of cell survival was then determined. Their IC50 (nM) values were calculated using Prism 5.0. RF (relative fold) was a ratio of IC50 of anticancer drugs in a P-gp-overexpressing cell line relative to its respective wild type. N = 3 independent experiments. […] All cell lines were counterstained with DAPI. (E) LCC6 and LCC6MDR, (F) P388 and P338ADR, and (G) K562 and K562/P-gp. Bar = 8 µm. / = not determined.

For the next assay, the system named is K562 cells. As to the kind of experiment: Drug resistance level: IC50 of anticancer drugs in K562. Type of assay: cell-based. The following applies: Homo sapiens, K562, 72 h; 3 days incubation. The protocol: as §1
A further assay concerns K562/P-gp leukemia. The assay is described as follows: In vivo efficacy in reversing DOX resistance in human leukemia K562/P-gp model. The arrangement: species or system NOD/SCID mice. The protocol: (§2) Irradiated BDF1 mice were i.p. inoculated with P388ADR cells, which caused mouse leukemia. Irradiated NOD/SCID mice were i.v. inoculated with K562/P-gp cells, which caused human leukemia. The mice were randomized and treated with (1) control treatment (no treatment), (2) DOX alone, and (3) EC31 + DOX. Treatments were given as indicated by the arrows. The number of mice deaths in each treatment group was recorded every day. (A) The percent survival of mice infected with P388ADR. (B) The percent survival of mice infected with K562/P-gp. The mice median survival days and the increased lifespan (ILS) were analyzed with Log-rank (Mantel–COX) test in Prism 5.0. Student’s paired t test was conducted as indicated. ** represents p < 0.01, and *** represents p < 0.001. N.S. = not significant.
The mice were randomly distributed into 3 groups: (1) control group (no treatment), (2) DOX (0.9 mg/kg i.v.) alone, and (3) cotreatment with EC31 (30 mg/kg i.p.) being injected 1 h prior to DOX (0.9 mg/kg i.v.) administration. EC31 and DOX were injected on days 7, 11, 19, 23, and 27. Before each treatment, 0.2 mg/mL of DOX was freshly prepared using PBS. Mice survival and body weight were monitored during the study period.

A further assay concerns P388ADR cells. The assay is described as follows: Drug resistance level: IC50 of anticancer drugs in P388ADR. Type of assay: cell-based, mouse. How it is done:
as §1

Another assay relates to P388 cells. As to the kind of experiment: Drug resistance level: IC50 of anticancer drugs in P388. Type of assay: cell-based. To be noted: Mus musculus, P388, 72 h; 3 days incubation. How it is done: as §1
For the next assay, the system named is LCC6MDR cells. The assay is described as follows: Drug resistance level: IC50 of anticancer drugs in LCC6MDR. Type of assay: cell-based, human. How it is done: as §1
In the next assay the test system is K562/P-gp cells. As to the kind of experiment: Drug resistance level: IC50 of anticancer drugs in K562/P-gp. Type of assay: cell-based, human. How it is done: as §1
Another assay has as its system P388ADR leukemia. The assay is described as follows: In vivo efficacy in reversing DOX resistance in murine leukemia P388ADR model. On the set-up: species or system B6D2F1 mice. The following applies: DOX 3 mg/kg i.p. alone. The protocol: as §2
About 1 × 10^6 cells of P388ADR were i.p. inoculated in male B6D2F1 mice aged 5–7 weeks old. There were 3 groups: (1) control group with no treatment, (2) DOX (3 mg/kg i.p.) alone, and (3) cotreatment with EC31 (60 mg/kg i.p.) being injected 1 h prior to DOX (3 mg/kg i.p.) administration. In group 2, DOX was i.p. injected on days 2, 6, 10, 14, and 18 only. In group 3, EC31 was i.p. injected on days 1, 2, 5, 6, 9, 10, 13, 14, 17, and 18, and DOX was i.p. injected on days 2, 6, 10, 14, and 18. Before each treatment, 1.5 mg/mL of DOX was freshly prepared using PBS. Mice survival and body weight were monitored during the study period.

In general, IC50 refers to the concentration needed to halve the response being measured. Low values mean greater potency in that assay, high ones weaker potency in that assay. Turning to `COc1cccc2c1C(=O)c1c(O)c3c(c(O)c1C2=O)C[C@@](O)(C(=O)CO)C[C@@H]3O[C@H]1C[C@H](N)[C@H](O)[C@H](C)O1` [DOX, doxorubicin], the 50% inhibitory concentration (IC50) in the assay on LCC6 cells was found to be 800 ± 100 nM; in the assay with K562 cells it was 312 ± 41.6 nM; in the assay on P388ADR cells (Mus musculus, P388/ADR, 72 h, 3 days incubation), 1790 ± 139 nM; in the assay with P388 cells it was 50 ± 1.8 nM; in the assay with LCC6MDR cells (Homo sapiens, LCC6MDR, 72 h, 3 days incubation), 10300 nM; in the assay on K562/P-gp cells (Homo sapiens, K562, 72 h, 3 days incubation), 1930 ± 126 nM. The median survival time in the assay on K562/P-gp leukemia (DOX 0.9 mg/kg i.v. alone) is given as 32.0 days. In addition, the “ILS% (increase in lifespan)” value with K562/P-gp leukemia (DOX alone compared to untreated) is 10.3%. For the same compound, the results for the “RF (relative fold)” value in the assay on P388ADR cells (IC50 in P388ADR relative to P388), with LCC6MDR cells (IC50 in LCC6MDR relative to LCC6) and with K562/P-gp cells (IC50 in K562/P-gp relative to K562) were 35.8, 12.9 and 6.2, respectively. In the assay on P388ADR leukemia, the median survival came out at 16.5 days.
